Laboratory results reported in patent publication US20230227466A1, “SUBSTITUTED THIENOPYRIMIDINES THAT INTERACT WITH THE RAS SUPERFAMILY FOR THE TREATMENT OF CANCERS, INFLAMMATORY DISEASES, RASOPATHIES, AND FIBROTIC DISEASE” (SHY Therapeutics, LLC, priority 2020, published 2023).
Read-outs that look alike come from different tables or passages of the source.

Experiments:
[1] = target: Rac-1 (Homo sapiens, UniProt P63000); assay: Ras GTP binding domain inhibition assay (labeled-GTP competition, cell-free); parameters: made in house
Outline: (§1)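 His-tagged protein immobilized on Ni-coated wells overnight at 4 °C. Compounds (20 μM single point or serial dilution for IC50) incubated 3 h at RT, ± Sos (residues 556-1049, 10-30 μg/mL) during the final hour. Cy3- or Cy5-GTP (100 nM) then added for 45 min; bound label read by fluorescence after washing.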

[2] = target: Rho-A (Homo sapiens, UniProt P61586); assay: as above; parameters: made in house
Outline: as §1

[3] = target: KRas wild type (Homo sapiens, UniProt P01116); assay: as above; parameters: made in house
Outline: as §1

[4] = system: ERK1/2 phosphorylation in Panc-1 cells; assay: Western ERK1/2 cell-based phosphorylation assay; parameters: species or system human; conditions: at 10 μM, values in brackets < > are activation %, not inhibition
Outline: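 Panc-1 cells starved overnight in 0.5% FBS, then exposed 6 h at 37 °C to compound at 10 μM final (0.3% DMSO) or serial dilutions for IC50. Stimulation with 1.5 ng/ml EGF for 15 min; phospho-ERK1/2 (Thr202/Tyr204) read by western blot on equal protein loads.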

[5] = target: T1, KRas G12D mutant (Homo sapiens, UniProt P01116, G12D); assay: Ras GTP binding domain inhibition assay (labeled-GTP competition, cell-free)
T1 construct: made in house
Outline: as §1

[6] = target: T2, KRas G12C mutant (Homo sapiens, UniProt P01116, G12C); assay: as above
T2 construct: made in house
Outline: as §1

[7] = target: T3, KRas Q61H mutant (Homo sapiens, UniProt P01116, Q61H); assay: as above
T3 construct: made in house
Outline: as §1

[8] = without SOS, read-out: Rac-1: % inh.
[9] = without SOS, read-out: Rho-A: % inh.
[10] = with SOS, read-out: KRas wild type + SOS: % inh.
[11] = without SOS, read-out: KRas wild type: % inh.
[12] = with SOS, read-out: KRas G12D mutant + SOS: % inh.
[13] = without SOS, read-out: KRas G12D mutant: % inh.
[14] = with SOS, read-out: KRas G12C mutant + SOS: % inh.
[15] = without SOS, read-out: KRas G12C mutant: % inh.
[16] = with SOS, read-out: KRas Q61H mutant + SOS: % inh.
[17] = without SOS, read-out: KRas Q61H mutant: % inh.
[18] = with SOS, read-out: Rac-1 + SOS: % inh.
[19] = with SOS, read-out: Rho-A + SOS: % inh.

Row | inhibition at 20 µM [1, 8] [%] | inhibition at 20 µM [2, 9] [%] | inhibition at 20 µM [3, 10] [%] | inhibition at 20 µM [3, 11] [%] | inhibition at 20 µM [5, 12] [%] | inhibition at 20 µM [5, 13] [%] | inhibition at 20 µM [6, 14] [%] | inhibition at 20 µM [6, 15] [%] | inhibition at 20 µM [7, 16] [%] | inhibition at 20 µM [7, 17] [%] | inhibition at 20 µM [1, 18] [%] | inhibition at 20 µM [2, 19] [%] | IC50 ([7]; with SOS) [µM] | SMILES | % inh of ERK1/2 phosphorylation in PANC-1 [4]
1 | 0 | 1 to 25 | 0 | 0 | 0 | 0 | 0 | 0 | 1 to 25 | 1 to 25 | – | – | – | Oc1nc(-c2cccnc2)nc2c(-c3ccccn3)csc12 [Compound 89, 7-(Pyridin-2-yl)-2-(pyridin-3-yl)thieno[3,2-d]pyrimidin-4-ol] | A (1-25% inhibition)
2 | 76 to 100 | 76 to 100 | 76 to 100 | 76 to 100 | 76 to 100 | 76 to 100 | 76 to 100 | 76 to 100 | 76 to 100 | 76 to 100 | 76 to 100 | 76 to 100 | – | COc1nc(-c2nccn2C)nc2c(-c3ncccc3F)csc12 [Compound 95, 7-(3-Fluoropyridin-2-yl)-4-methoxy-2-(1-methyl-1H-imidazol-2-yl)thieno[3,2-d]pyrimidine] | 0 (0% inhibition)
3 | 51 to 75 | 51 to 75 | 1 to 25 | 51 to 75 | 26 to 50 | 51 to 75 | 1 to 25 | 26 to 50 | 26 to 50 | 51 to 75 | – | – | – | COc1ccn2c(-c3nc(O)c4scc(-c5ccccn5)c4n3)ncc2c1 [Compound 85, 2-(7-Methoxyimidazo[1,5-a]pyridin-3-yl)-7-(pyridin-2-yl)thieno[3,2-d]pyrimidin-4-ol] | 0 (0% inhibition)
4 | 51 to 75 | 51 to 75 | 1 to 25 | 26 to 50 | 26 to 50 | 51 to 75 | 1 to 25 | 1 to 25 | 26 to 50 | 1 to 25 | – | – | – | COCCn1c(-c2nc(O)c3scc(-c4ccccn4)c3n2)nc2ccccc21 [Compound 87, 2-(1-(2-Methoxyethyl)-1H-benzo[d]imidazol-2-yl)-7-(pyridin-2-yl)thieno[3,2-d]pyrimidin-4-ol] | A (1-25% inhibition)
5 | 26 to 50 | 51 to 75 | 0 | 0 | 1 to 25 | 26 to 50 | 1 to 25 | 1 to 25 | 26 to 50 | 1 to 25 | – | – | – | Cn1ccc(-c2nc(O)c3scc(-c4ccccn4)c3n2)n1 [Compound 90, 2-(1-Methyl-1H-pyrazol-3-yl)-7-(pyridin-2-yl)thieno[3,2-d]pyrimidin-4-ol] | 0 (0% inhibition)
6 | 76 to 100 | 76 to 100 | 51 to 75 | 51 to 75 | 76 to 100 | 76 to 100 | 51 to 75 | 51 to 75 | 51 to 75 | 51 to 75 | – | – | – | COCCn1ccnc1-c1nc(O)c2scc(-c3ccncc3)c2n1 [Compound 94, 2-(1-(2-Methoxyethyl)-1H-imidazol-2-yl)-7-(pyridin-4-yl)thieno[3,2-d]pyrimidin-4-ol] | 0 (0% inhibition)
7 | 51 to 75 | 51 to 75 | 26 to 50 | 51 to 75 | 51 to 75 | 51 to 75 | 26 to 50 | 26 to 50 | 51 to 75 | 26 to 50 | – | – | – | COc1ccc2cnc(-c3nc(O)c4scc(-c5ccccn5)c4n3)n2c1 [Compound 86, 2-(6-Methoxyimidazo[1,5-a]pyridin-3-yl)-7-(pyridin-2-yl)thieno[3,2-d]pyrimidin-4-ol] | 0 (0% inhibition)
8 | 51 to 75 | 51 to 75 | 1 to 25 | 26 to 50 | 26 to 50 | 51 to 75 | 26 to 50 | 1 to 25 | 26 to 50 | 26 to 50 | – | – | – | Oc1nc(-c2ccncn2)nc2c(-c3ccccn3)csc12 [Compound 88, 7-(Pyridin-2-yl)-2-(pyrimidin-4-yl)thieno[3,2-d]pyrimidin-4-ol] | <B>
9 | 0 | 0 | 0 | 0 | 1 to 25 | 1 to 25 | 1 to 25 | 0 | 26 to 50 | 1 to 25 | – | – | – | Cn1nccc1-c1nc(O)c2scc(-c3ccccn3)c2n1 [Compound 91, 2-(1-Methyl-1H-pyrazol-5-yl)-7-(pyridin-2-yl)thieno[3,2-d]pyrimidin-4-ol] | 0 (0% inhibition)
10 | 76 to 100 | 76 to 100 | 51 to 75 | 51 to 75 | 51 to 75 | 76 to 100 | 51 to 75 | 51 to 75 | 51 to 75 | 76 to 100 | – | – | – | Cc1cnc(-c2nc(O)c3scc(-c4ccccn4)c3n2)s1 [Compound 92, 2-(5-Methylthiazol-2-yl)-7-(pyridin-2-yl)thieno[3,2-d]pyrimidin-4-ol] | 0 (0% inhibition)
11 | 76 to 100 | 51 to 75 | 76 to 100 | 51 to 75 | 76 to 100 | 76 to 100 | 76 to 100 | 76 to 100 | 76 to 100 | 76 to 100 | 76 to 100 | 76 to 100 | 5 to 10 | CO[C@H]1CC[C@@H](Nc2nc(-c3nccn3C)nc3sc(-c4cn(C)cn4)c(-c4ccccc4)c23)C1 (racemic) [Example 3, Rac-N-((1R,3S)-3-methoxycyclopentyl)-2-(1-methyl-1H-imidazol-2-yl)-6-(1-methyl-1H-imidazol-4-yl)-5-phenylthieno[2,3-d]pyrimidin-4-amine] | A (1-25% inhibition)
12 | 51 to 75 | 76 to 100 | 76 to 100 | 76 to 100 | 51 to 75 | 51 to 75 | 76 to 100 | 76 to 100 | 76 to 100 | 51 to 75 | 51 to 75 | 76 to 100 | 1 to 4.99 | CO[C@H]1C[C@@H](Nc2nc(-c3nccn3C)nc3sc(-c4cn(C)cn4)c(-c4ccccc4)c23)C1 [Example 2, N-((1s,3s)-3-methoxycyclobutyl)-2-(1-methyl-1H-imidazol-2-yl)-6-(1-methyl-1H-imidazol-4-yl)-5-phenylthieno[2,3-d]pyrimidin-4-amine] | C (51-75% inhibition)
